Here are results for 30 molecules from patent US11945806B2, “Stabilization of amyloidogenic immunoglobulin light chains” (The Scripps Research Institute, priority 2019, dated 2024).

Molecules are shown by their SMILES.

The target in this experiment is WIL-FL (Homo sapiens, UniProt P01721). In words: Unlabeled LC Protease Sensitivity Assay (proteinase K). The experiment is classed as biochemical. Conditions: small molecule 10 μM, WIL-FL 5 μM, proteinase K 50 nM, 2 hours at 37° C. The procedure:
Unlabeled LC Protease Sensitivity Assay. WIL-FL (5 μM) in phosphate-buffered saline (PBS, pH 7.4)+0.02% Pluronic F-127 was incubated with proteinase K (50 nM) with small molecule (10 μM) in 1% DMSO vehicle, or vehicle alone. After 2 hours at 37° C., reactions were quenched with 2 mM phenylmethyl sulfonyl fluoride in methanol and centrifuged at 14,000 rpm for 2 minutes. Remaining WIL-FL was quantified by injecting 10 μL of the supernatant into a Waters Acquity H-Class Bio-UPLC (ultra performance liquid chromatography) instrument equipped with a BEH200 analytical size-exclusion column (1.7 μm, 4.6×150 mm) under isocratic conditions (0.2 mL/min, PBS+1 mM EDTA, 2400 psi backpressure, 15 min), monitoring absorbance at 280 nm. Activity of each compound is given as fold protection from protease=(A_compound−A_vehicle)/(A_no_protease−A_vehicle), where each “A” corresponds to peak integration of the respective treatment.
With `CCN(CC)c1ccc2c(C)c(CCNC(=O)OCc3cccnc3)c(=O)oc2c1` [Compound 100, Pyridin-3-ylmethyl (2-(7-(diethylamino)-4-methyl-2-oxo-2H-chromen-3-yl)ethyl)carbamate], the “Protection (fold protection of LC from protease)” value is given as “A (A < 0.3))”.
On to `CCN(CC)c1ccc2c(C)c(CCOC(=O)NCc3ccc(C(F)(F)F)nc3)c(=O)oc2c1` [Compound 101, 2-(7-(diethylamino)-4-methyl-2-oxo-2H-chromen-3-yl)ethyl ((6-(trifluoromethyl)pyridin-3-yl)methyl)carbamate], for which the “Protection (fold protection of LC from protease)” value was “A (A < 0.3))”.
To `CCN(CC)c1ccc2c(C)c(CCOC(=O)N(C)CCc3cccnc3)c(=O)oc2c1` [Compound 102, 2-(7-(diethylamino)-4-methyl-2-oxo-2H-chromen-3-yl)ethyl methyl(2-(pyridin-3-yl)ethyl)carbamate] belongs “A (A < 0.3))”; to `CCN(CC)c1ccc2c(C)c(CCOC(=O)Nc3ccc(NC(C)=O)cn3)c(=O)oc2c1` [Compound 103, 2-(7-(diethylamino)-4-methyl-2-oxo-2H-chromen-3-yl)ethyl (5-acetamidopyridin-2-yl)carbamate], “B (3 ≤ B < 0.6)”; to `CCN(CC)c1ccc2c(C)c(CCOC(=O)N3CC(C(=O)OC)C3)c(=O)oc2c1` [Compound 104, 1-(2-(7-(diethylamino)-4-methyl-2-oxo-2H-chromen-3-yl)ethyl) 3-methyl azetidine-1,3-dicarboxylate], “A (A < 0.3))”.
For `CCOC(=O)N1CCC(NC(=O)OCCc2c(C)c3ccc(N(CC)CC)cc3oc2=O)CC1` [Compound 105, Ethyl 4-(((2-(7-(diethylamino)-4-methyl-2-oxo-2H-chromen-3-yl)ethoxy)carbonyl)amino)piperidine-1-carboxylate] the value was “B (3 ≤ B < 0.6)”; for `CCN(CC)c1ccc2c(C)c(CCOC(=O)N3CCC(CO)C3)c(=O)oc2c1` (stereo not drawn) [Compound 106, 2-(7-(diethylamino)-4-methyl-2-oxo-2H-chromen-3-yl)ethyl 3-(hydroxymethyl)pyrrolidine-1-carboxylate], “A (A < 0.3))”.
For `CCN(CC)c1ccc2c(C)c(CCOC(=O)N3CCN(S(=O)(=O)C4CC4)CC3)c(=O)oc2c1` [Compound 107, 2-(7-(diethylamino)-4-methyl-2-oxo-2H-chromen-3-yl)ethyl 4-(cyclopropylsulfonyl)piperazine-1-carboxylate] the value was “A (A < 0.3))”; for `CCN(CC)c1ccc2c(C)c(CCOC(=O)N3CC(F)(F)C3)c(=O)oc2c1` [Compound 108, 2-(7-(diethylamino)-4-methyl-2-oxo-2H-chromen-3-yl)ethyl 3,3-difluoroazetidine-1-carboxylate], “A (A < 0.3))”; for `CCN(CC)c1ccc2c(C)c(CCOC(=O)N3CCN(c4cnccn4)CC3)c(=O)oc2c1` [Compound 109, 2-(7-(diethylamino)-4-methyl-2-oxo-2H-chromen-3-yl)ethyl 4-(pyrazin-2-yl)piperazine-1-carboxylate], “A (A < 0.3))”.
As to `CCN(CC)c1ccc2c(C)c(CCOC(=O)N3CC4(C3)CS(=O)(=O)C4)c(=O)oc2c1` [Compound 110, 2-(7-(diethylamino)-4-methyl-2-oxo-2H-chromen-3-yl)ethyl 2-thia-6-azaspiro[3.3]heptane-6-carboxylate 2,2-dioxide], the “Protection (fold protection of LC from protease)” value is reported as “B (3 ≤ B < 0.6)”.
For `CCN(CC)c1ccc2c(C)c(CCOC(=O)N3CCC(C)(O)C3)c(=O)oc2c1` (stereo not drawn) [Compound 111, 2-(7-(diethylamino)-4-methyl-2-oxo-2H-chromen-3-yl)ethyl 3-hydroxy-3-methylpyrrolidine-1-carboxylate] the value was “A (A < 0.3))”; for `CCN(CC)c1ccc2c(C)c(CCOC(=O)N3CCS(=O)(=O)CC3)c(=O)oc2c1` [Compound 112, 2-(7-(diethylamino)-4-methyl-2-oxo-2H-chromen-3-yl)ethyl thiomorpholine-4-carboxylate 1,1-dioxide], “A (A < 0.3))”; for `CCN(CC)c1ccc2c(C)c(CCOC(=O)N3CCN(c4cc(C)no4)CC3)c(=O)oc2c1` [Compound 113, 2-(7-(diethylamino)-4-methyl-2-oxo-2H-chromen-3-yl)ethyl 4-(3-methylisoxazol-5-yl)piperazine-1-carboxylate], “A (A < 0.3))”.
To `CCN(CC)c1ccc2c(C)c(CCOC(=O)N3CCN(c4ccccn4)CC3)c(=O)oc2c1` [Compound 114, 2-(7-(diethylamino)-4-methyl-2-oxo-2H-chromen-3-yl)ethyl 4-(pyridin-2-yl)piperazine-1-carboxylate] belongs “A (A < 0.3))”; to `CCN(CC)c1ccc2c(C)c(CCOC(=O)N3CCN(c4nn[nH]n4)CC3)c(=O)oc2c1` [Compound 115, 2-(7-(diethylamino)-4-methyl-2-oxo-2H-chromen-3-yl)ethyl 4-(2H-tetrazol-5-yl)piperazine-1-carboxylate], “A (A < 0.3))”.
For `CCN(CC)c1ccc2c(C)c(CCOC(=O)N3CCN(c4ncccn4)CC3)c(=O)oc2c1` [Compound 116, 2-(7-(diethylamino)-4-methyl-2-oxo-2H-chromen-3-yl)ethyl 4-(pyrimidin-2-yl)piperazine-1-carboxylate] the value was “A (A < 0.3))”; for `CCN(CC)c1ccc2c(C)c(CCOC(=O)NCc3cccc(NC(C)=O)c3)c(=O)oc2c1` [Compound 117, 2-(7-(diethylamino)-4-methyl-2-oxo-2H-chromen-3-yl)ethyl (3-acetamidobenzyl)carbamate], “C (C ≥ 0.6)”; for `CCN(CC)c1ccc2c(C)c(CCOC(=O)N3CCC(Cc4cccnc4)CC3)c(=O)oc2c1` [Compound 118, 2-(7-(diethylamino)-4-methyl-2-oxo-2H-chromen-3-yl)ethyl 4-(pyridin-3-ylmethyl)piperidine-1-carboxylate], “B (3 ≤ B < 0.6)”.
As for `CCN(CC)c1ccc2c(C)c(CCOC(=O)NCc3ccc(C(=O)O)cc3)c(=O)oc2c1` [Compound 119, 4-((((2-(7-(diethylamino)-4-methyl-2-oxo-2H-chromen-3-yl)ethoxy)carbonyl)amino)methyl)benzoic acid], the “Protection (fold protection of LC from protease)” value is “B (3 ≤ B < 0.6)”.
For `CCN(CC)c1ccc2c(C)c(CCOC(=O)NCc3cccc(C(=O)O)c3)c(=O)oc2c1` [Compound 123, 3-((((2-(7-(diethylamino)-4-methyl-2-oxo-2H-chromen-3-yl)ethoxy)carbonyl)amino)methyl)benzoic acid] the value was “B (3 ≤ B < 0.6)”; for `CCN(CC)c1ccc2c(C)c(CCOC(=O)NCc3ccc(NC(C)=O)cn3)c(=O)oc2c1` [Compound 127, 2-(7-(diethylamino)-4-methyl-2-oxo-2H-chromen-3-yl)ethyl ((5-acetamidopyridin-2-yl)methyl)carbamate], “B (3 ≤ B < 0.6)”; for `CCN(CC)c1ccc2c(C)c(CCOC(=O)NCc3cncc(NC(C)=O)c3)c(=O)oc2c1` [Compound 128, 2-(7-(diethylamino)-4-methyl-2-oxo-2H-chromen-3-yl)ethyl ((5-acetamidopyridin-3-yl)methyl)carbamate], “B (3 ≤ B < 0.6)”.
In the case of `CCN(CC)c1ccc2c(C)c(CN3C(=O)CNC3=O)c(=O)oc2c1` [Compound 129, 3-((7-(diethylamino)-4-methyl-2-oxo-2H-chromen-3-yl)methyl)imidazolidine-2,4-dione], the “Protection (fold protection of LC from protease)” value was “B (3 ≤ B < 0.6)”.
In the case of `CCN(CC)c1ccc2c(C)c(CCN3C(=O)CNC3=O)c(=O)oc2c1` [Compound 130, 3-(2-(7-(diethylamino)-4-methyl-2-oxo-2H-chromen-3-yl)ethyl)imidazolidine-2,4-dione], the “Protection (fold protection of LC from protease)” value is recorded as “B (3 ≤ B < 0.6)”.
To `CCN(CC)c1ccc2c(C)c(CCNC(=O)NC)c(=O)oc2c1` [Compound 131, 1-(2-(7-(diethylamino)-4-methyl-2-oxo-2H-chromen-3-yl)ethyl)-3-methylurea] belongs “B (3 ≤ B < 0.6)”.
To `CCN(CC)c1ccc2c(C)c(CCOC(=O)NCCNc3ccccn3)c(=O)oc2c1` [Compound 132, 2-(7-(diethylamino)-4-methyl-2-oxo-2H-chromen-3-yl)ethyl (2-(pyridin-2-ylamino)ethyl)carbamate] belongs “C (C ≥ 0.6)”; to `CCN(CC)c1ccc2c(C)c(CCOC(=O)NCCCN(C)C)c(=O)oc2c1` [Compound 133, 2-(7-(diethylamino)-4-methyl-2-oxo-2H-chromen-3-yl)ethyl (3-(dimethylamino)propyl)carbamate], “B (3 ≤ B < 0.6)”.
To `CCN(CC)c1ccc2c(C)c(CCOC(=O)NCc3cccc(CN(C)C)c3)c(=O)oc2c1` [Compound 135, 2-(7-(diethylamino)-4-methyl-2-oxo-2H-chromen-3-yl)ethyl (3-((dimethylamino)methyl)benzyl)carbamate] belongs “C (C ≥ 0.6)”; to `CCc1cc(=O)oc2cc(N(CC)CC)ccc12` [Compound 136, 7-(diethylamino)-4-ethyl-2H-chromen-2-one], “A (A < 0.3))”.
